Molecules are shown by their SMILES.

The series can be described thus: Human HepG2 cell viability assay in 384 well format. It is filed as toxicity, cell-based. Also on record: dose 125 nL, time 70.5 hour; concentration not given beside the values. The note with it: HepG2 cells, read-out: Inhibition.
Regarding `Cc1ccccc1C(=O)NC(C)c1cnn(C)c1` (stereo unspecified), the cytotoxicity at 70.5 h was found to be 27.8%.
As to `CCn1cc(C(=O)N2CCOCC2)cn1`, the cytotoxicity at 70.5 h is -3.04%.
As for `CC(C)N1CCC(c2nccnc2Nc2cnccn2)CC1`, the figure is 17.9%; as for `Cc1cncnc1C1CCN(CC(N)=O)CC1`, -4.96%; as for `O=C(c1n[nH]c(=O)c2ccccc12)N1CCC(O)(CN2CCOCC2)C1` (stereo unspecified), 14.5%.
With `Nc1cccc(C2CN(C(=O)CN3CCOCC3)CCO2)n1` (stereo unspecified) the figure was -4.5%; with `CO[C@H]1CN(S(=O)(=O)c2ccc(F)cc2)C[C@@]12CCCO2`, 36.6%.
Regarding `CCc1nnc(Nc2cc(C)nc(C3CCN(c4ccncn4)C3)n2)s1` (stereo unspecified), the cytotoxicity at 70.5 h worked out at 12.4%.
Consider `O=C(NCCc1ccc(F)cc1)C1CN(C(=O)Cn2cncn2)C1`, for which the cytotoxicity at 70.5 h was -13.2%.
As for `CC(=O)N1CCOC(c2c(C(=O)NC(C)(C)C)sc3ccccc23)C1` (stereo unspecified), the cytotoxicity at 70.5 h was -13.1%.
With `Cc1nn(C)cc1NC(=O)CC1CCN(C(=O)Cc2ccccc2)CC1`, the cytotoxicity at 70.5 h is -4.98%.
For the molecule `Cc1c[nH]nc1C1CCN(C(=O)C2CCC2)CC1`, the cytotoxicity at 70.5 h is -8.63%.
On to `CC(C)S(=O)(=O)N1C[C@@H](c2ccccc2)[C@H]2[C@H]1CCCCCN2C`, for which the cytotoxicity at 70.5 h was -5.45%.
In the case of `COc1ccc(-c2cc(C(=O)NCCn3ccnc3)n(C)n2)cc1`, the cytotoxicity at 70.5 h is 19.2%.
With `CNc1cc(C)nc(C2CCN(CCO)CC2)n1` the figure was -6.23%.
With `COCCN1CCN(c2nc(O)cc(Cc3ccccc3F)n2)CC1`, the cytotoxicity at 70.5 h is -5.81%.
Regarding `O=C1CCC[C@]2(CN(S(=O)(=O)C3CCCCC3)C[C@H]2c2cccnc2)N1`, the cytotoxicity at 70.5 h is -3.41%.
With `CC(=O)N1CCC(c2cccc(-c3cccc(C(=O)O)c3)n2)CC1`, the cytotoxicity at 70.5 h is -0.201%.
For `CC(=O)N1CCC(c2cccc(Oc3ccccc3)n2)CC1`, the cytotoxicity at 70.5 h was -3.81%.
On to `COCC(=O)N1CCC(c2cc(N(C)C)cc(C)n2)CC1`, for which the cytotoxicity at 70.5 h was determined as 25.5%.
With `Cc1ccc(N2CCOC(C)(C(=O)N(C)C)C2)nn1` (stereo unspecified), the cytotoxicity at 70.5 h is -6.16%.
Turning to `Cc1nn(C)cc1NC(=O)CC1CCN(CCc2ccccc2)CC1`, the cytotoxicity at 70.5 h was -7.48%.
With `Cc1cc(N2CCOC(C)(C(=O)N(C)C)C2)ncn1` (stereo unspecified), the cytotoxicity at 70.5 h is -6.62%.
Take `O=C(c1ccc(=O)[nH]n1)N1CCNCC1c1ccccc1` (stereo unspecified): the cytotoxicity at 70.5 h was -2.98%.
As for `NCc1cccc(-c2cccnc2C(=O)NCCCN2CCOCC2)c1`, the cytotoxicity at 70.5 h was -3.76%.
`CNc1nccnc1C1CN(Cc2ccc3[nH]ccc3c2)CCO1` (stereo unspecified): the cytotoxicity at 70.5 h is -2.11%.
With `CC(C)(C)n1nnnc1CN(Cc1ccccc1)Cc1ccccc1Cl`, the cytotoxicity at 70.5 h is -5.12%.
As for `O=C(c1cc2c(s1)CCC2)N1CCC(c2ccncc2)CC1`, the figure is 15.8%.
As for `COCCNc1nnc(-c2ccccn2)s1`, the figure is -4.27%.
For `COc1ncc(CN(C)C2CCN(C(C)C)CC2)cn1`, the cytotoxicity at 70.5 h was 8.08%.
Consider `c1cc(-c2cnc(NC3CC3)nc2[C@H]2CCCO2)ccn1`, for which the cytotoxicity at 70.5 h was -7.2%.
Regarding `c1cc(-c2cncc(C3CCNCC3)n2)n[nH]1`, the cytotoxicity at 70.5 h was -6.89%.
Turning to `CC(C)(C)C(=O)N1CCCC1c1nccnc1Cl` (stereo unspecified), the cytotoxicity at 70.5 h is -8.54%.
As for `O=C(NCc1ccccn1)c1cnc(C2CCCN2)cn1` (stereo unspecified), the cytotoxicity at 70.5 h was -4.69%.
Regarding `Cc1nccc(C2CCCN(C(=O)c3cncnc3)C2)n1` (stereo unspecified), the cytotoxicity at 70.5 h is -5.03%.
For `CC(=O)N1CCCC(c2nccnc2-c2ccc(CO)cc2)C1` (stereo unspecified), the cytotoxicity at 70.5 h is -5.35%.
As for `COCC(=O)N1CCN(C)C(=O)C(Cc2ccccc2-c2cccs2)C1` (stereo unspecified), the figure is 1.61%; as for `Cc1cc(C2CCNCC2)nc(-c2ccsc2)n1`, -8.24%; as for `CC(C)(C)C(=O)N1C[C@H](c2ccsc2)[C@H]2CN(C3CCCCC3)CC[C@H]21`, -3.27%.
Take `CNC(=O)c1cc(C2CCCNC2)n[nH]1` (stereo unspecified): the cytotoxicity at 70.5 h amounted to 21.1%.
In the case of `Cc1cc(C)nc(C2CCCNC2)n1` (stereo unspecified), the cytotoxicity at 70.5 h came out at 17.9%.

For the origin of these results see ChEMBL document CHEMBL3507680, “University of Dundee, Gates Library screen for HepG2 cell viability”.
